pIC50: −log10 of the molar value.
biological target: human PAD4 (hPAD4) (Homo sapiens, UniProt Q9UM07); assay: RFMS human PAD4 functional assay (rapid-fire mass spectrum); assay type: biochemical; conditions: 5 nM hPAD4 enzyme, 250 μM BAEE, 50 μM Calcium; 30 min preincubation, 90 min reaction at 37° C.
How it was run: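 PAD4 (10 nM) preincubated 30 min with compound (top final 50 μM), then BAEE substrate added in pH 7.5 HEPES buffer with DTT, 50 μM calcium, TPEN; 90 min at 37° C. After TCA quench, citrulline derivatized with phenyl glyoxal (4 mM final, 30 min, 37° C) and quantified by RapidFire MS against internal standard.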

human PAD4 (hPAD4), sequence (Q9UM07 whole entry): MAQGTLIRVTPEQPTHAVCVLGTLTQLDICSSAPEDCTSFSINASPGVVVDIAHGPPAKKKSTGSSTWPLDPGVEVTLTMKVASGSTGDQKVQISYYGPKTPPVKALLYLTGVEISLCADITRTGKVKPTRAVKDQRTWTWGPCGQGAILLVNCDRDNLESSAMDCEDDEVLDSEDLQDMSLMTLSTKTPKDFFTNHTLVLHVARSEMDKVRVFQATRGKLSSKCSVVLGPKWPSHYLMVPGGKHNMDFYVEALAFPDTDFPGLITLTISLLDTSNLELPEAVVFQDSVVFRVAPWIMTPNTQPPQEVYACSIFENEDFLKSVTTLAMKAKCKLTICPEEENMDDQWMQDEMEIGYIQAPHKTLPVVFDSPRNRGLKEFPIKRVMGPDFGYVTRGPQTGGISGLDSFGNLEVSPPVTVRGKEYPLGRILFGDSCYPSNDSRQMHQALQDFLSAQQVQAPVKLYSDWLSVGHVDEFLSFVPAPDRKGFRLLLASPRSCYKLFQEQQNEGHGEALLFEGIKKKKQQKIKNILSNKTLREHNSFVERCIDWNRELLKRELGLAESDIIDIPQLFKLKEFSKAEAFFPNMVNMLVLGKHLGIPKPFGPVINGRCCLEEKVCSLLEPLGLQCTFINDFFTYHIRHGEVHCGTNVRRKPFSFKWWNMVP

Row | Structure (SMILES) | pIC50
1 | COc1cc(C(=O)N2CC3CCC2[C@@H]3N)cc2nc(-c3cc4cccnc4n3CC3CC3)n(CC3CCN(c4ncccn4)CC3)c12 (stereo partly drawn) [Example 220, (1R,4R,7R)-2-{2-[1-(cyclopropylmethyl)-1H-pyrrolo[2,3-b]pyridin-2-yl]-7-methoxy-1-{[1-(pyrimidin-2-yl)piperidin-4-yl]methyl)-1H-1,3-benzodiazole-5-carbonyl}-2-azabicyc1o[2.2.1]heptan-7-amine] | 7.14
2 | COc1cc(C(=O)N2CC3CCC2[C@@H]3N)cc2nc(-c3csc4ccc(Cl)cc34)n(CC3CN(c4ccnc(C(N)=O)n4)C3)c12 (stereo partly drawn) [Example 320, 4-[3-({5-[(1R,4R,7R)-7-amino-2-azabicyclo[2.2.1]heptane-2-carbonyl]-2-(5-chloro-1-benzothiophen-3-yl)-7-methoxy-1H-1,3-benzodiazo1-1-yl}methyl)azetidin-1-yl]pyrimidine-2-carboxamide] | 5.87
3 | COc1cc(C(=O)N2CC3CCC2[C@@H]3N)cc2nc(-c3cc4cccnc4n3CC3CC3)n(CC3CN(C(=O)Nc4ccccc4)C3)c12 (stereo partly drawn) [Example 455, 3-({5-[(7R)-7-amino-2-azabicyclo[2.2.1]heptane-2-carbonyl]-2-[1-(cyclopropylmethyl)-1H-pyrrolo[2,3-b]pyridin-2-yl]-7-methoxy-1H-1,3-benzodiazol-1-yl}methyl)-N-phenylazetidine-1-carboxamide] | 7.23
4 | COc1cc(C(=O)N2CCC[C@@H](N)C2)cc2nc(-c3cc4cccnc4n3CC3CC3)n([C@H]3C[C@H](N)C3)c12 [Example 300, (3R)-1-{2-[1-(cyclopropylmethyl)-1H-pyrrolo[2,3-b]pyridin-2-yl]-7-methoxy-1-[(1r,3r)-3-aminocyclobutyl]-1H-1,3-benzodiazole-5-carbonyl}piperidin-3-amine] | 6.04
5 | COc1cc(C(=O)N2C[C@H]3CC[C@@H]2[C@@H]3N)cc2nc(-c3cc4cccnc4n3CC3CC3)n(C3CN(C(=O)c4ccnc(C#N)c4)C3)c12 [Example 184, 4-(3-{5-[(1R,4R,7R)-7-amino-2-azabicyclo[2.2.1]heptane-2-carbonyl]-2-[1-(cyclopropylmethyl)-1H-pyrrolo[2,3-b]pyridin-2-yl]-7-methoxy-1H-1,3-benzodiazol-1-yl}azetidine-1-carbonyl)pyridine-2-carbonitrile] | 6.51
6 | COc1cc(C(=O)N2C[C@H]3CC[C@@H]2[C@@H]3N)cc2nc(-c3cc4cccnc4n3CC3CC3)n(C3CN(c4ccnc(C)n4)C3)c12 [Example 77, (1R,4R,7R)-2-{2-[1-(cyclopropylmethyl)-1H-pyrrolo[2,3-b]pyridin-2-yl]-7-methoxy-1-[1-(2-methylpyrimidin-4-yl)azetidin-3-yl]-1H-1,3-benzodiazole-5-carbonyl}-2-azabicyclo[2.2.1]heptan-7-amine] | 6.51
7 | COC(=O)Cn1cc(Cn2c(-c3cc4cccnc4n3CC3CC3)nc3cc(C(=O)N4CC5CCC4[C@@H]5N)cc(OC)c32)cn1 (stereo partly drawn) [Example 411, methyl 2-[4-({5-[(7R)-7-amino-2-azabicyclo[2.2.1]heptane-2-carbonyl]-2-[1-(cyclopropylmethyl)-1H-pyrrolo[2,3-b]pyridin-2-yl]-7-methoxy-1H-1,3-benzodiazol-1-yl}methyl)-1H-pyrazol-1-yl]acetate] | 7.26
8 | COc1cc(C(=O)N2C[C@H]3CC[C@@H]2[C@@H]3N)cc2nc(-c3cc4cccnc4n3C)n(CC3CN(c4ccnc(C#N)n4)C3)c12 [Example 26, 4-[3-({5-[(1R,4R,7R)-7-amino-2-azabicyclo[2.2.1]heptane-2-carbonyl]-7-methoxy-2-{1-methyl-1H-pyrrolo[2,3-b]pyridin-2-yl}-1H-1,3-benzodiazol-1-yl}methyl)azetidin-1-yl]pyrimidine-2-carbonitrile] | 7.14
9 | COc1cc(C(=O)N2C[C@H]3CC[C@@H]2[C@@H]3N)cc2nc(-c3cc4cccnc4n3C)n(CC3CN(c4cncnc4C#N)C3)c12 [Example 60, 5-[3-({5-[(1R,4R,7R)-7-amino-2-azabicyclo[2.2.1]heptane-2-carbonyl]-7-methoxy-2-{1-methyl-1H-pyrrolo[2,3-b]pyridin-2-yl}-1H-1,3-benzodiazol-1-yl}methyl)azetidin-1-yl]pyrimidine-4-carbonitrile] | 6.77
10 | COc1cc(C(=O)N2CC3CCC2[C@@H]3N)cc2nc(-c3cc4cccnc4n3CC3CC3)n(Cc3cn(C)nc3C)c12 (stereo partly drawn) [Example 497, (7R)-2-{2-[1-(cyclopropylmethyl)-1H-pyrrolo[2,3-b]pyridin-2-yl]-1-[(1,3-dimethyl-1H-pyrazol-4-yl)methyl]-7-methoxy-1H-1,3-benzodiazole-5-carbonyl}-2-azabicyclo[2.2.1]heptan-7-amine] | 6.96
11 | COc1cc(C(=O)N2CC3CCC2[C@@H]3N)cc2nc(-c3cc4ccccc4n3CC3CC3)n(Cc3ccn(C)n3)c12 (stereo partly drawn) [Example 498, (7R)-2-{2-[1-(cyclopropylmethyl)-1H-indol-2-yl]-7-methoxy-1-[(1-methyl-1H-pyrazol-3-yl)methyl]-1H-1,3-benzodiazole-5-carbonyl}-2-azabicyclo[2.2.1]heptan-7-amine] | 7.04
12 | COc1cc(C(=O)N2C[C@H]3CC[C@@H]2[C@@H]3N)cc2nc(-c3cccn3CC3CC3)n(CC3CN(c4ccnc(C#N)n4)C3)c12 [Example 311, 4-[3-({5-[(1R,4R,7R)-7-amino-2-azabicyclo[2.2.1]heptane-2-carbonyl]-2-[1-(cyclopropylmethyl)-1H-pyrrol-2-yl]-7-methoxy-1H-1,3-benzodiazol-1-yl}methyl)azetidin-1-yl]pyrimidine-2-carbonitrile] | 6.87
13 | COc1cc(C(=O)N2C[C@H]3CC[C@@H]2[C@@H]3N)cc2nc(-c3cc4cccnc4n3CC3CC3)n(CC3CN(c4cccc5c4CNC5=O)C3)c12 [Example 55, 4-[3-({5-[(1R,4R,7R)-7-amino-2-azabicyclo[2.2.1]heptane-2-carbonyl]-2-[1-(cyclopropylmethyl)-1H-pyrrolo[2,3-b]pyridin-2-yl]-7-methoxy-1H-1,3-benzodiazol-1-yl}methyl)azetidin-1-yl]-2,3-dihydro-1H-isoindol-1-one] | 6.79
14 | COc1cc(C(=O)N2C[C@H]3CC[C@@H]2[C@@H]3N)cc2nc(-c3cc4cccnc4n3CC3CC3)n(C3CNC3)c12 [Example 307, (1R,4R,7R)-2-[1-(azetidin-3-yl)-2-[1-(cyclopropylmethyl)-1H-pyrrolo[2,3-b]pyridin-2-yl]-7-methoxy-1H-1,3-benzodiazole-5-carbonyl]-2-azabicyclo[2.2.1]heptan-7-amine] | 6.53

Now those with a higher pIC50, led by results:

Row | pIC50 | Structure (SMILES)
15 | 7.41 | COc1cc(C(=O)N2C[C@H](N)C[C@@H](F)C2)cc2nc(-c3cc4cccnc4n3CC3CC3)n(Cc3cnn(-c4cccc(F)n4)c3)c12 [Example 344, (3R,5R)-1-{2-[1-(cyclopropylmethyl)-1H-pyrrolo[2,3-b]pyridin-2-yl]-1-{[1-(6-fluoropyridin-2-yl)-1H-pyrazol-4-yl]methyl}-7-methoxy-1H-1,3-benzodiazole-5-carbonyl}-5-fluoropiperidin-3-amine]
16 | 7.52 | COc1cc(C(=O)N2CC3CCC2[C@@H]3N)cc2nc(-c3cc4cccnc4n3CC3CC3)n(Cc3cnn(-c4ccc(O)nc4)c3)c12 (stereo partly drawn) [Example 370, 5-[4-({5-[(7R)-7-amino-2-azabicyclo[2.2.1]heptane-2-carbonyl]-2-[1-(cyclopropylmethyl)-1H-pyrrolo[2,3-b]pyridin-2-yl]-7-methoxy-1H-1,3-benzodiazol-1-yl}methyl)-1H-pyrazol-1-yl]pyridin-2-ol]
17 | 7.60 | COc1cc(C(=O)N2CC3CCC2[C@@H]3N)cc2nc(-c3cc4ccccc4n3CC3CC3)n(Cc3cnn(-c4ccnc(N)c4)c3)c12 (stereo partly drawn) [Example 361, (7R)-2-(1-{[1-(2-aminopyridin-4-yl)-1H-pyrazol-4-yl]methyl}-2-[1-(cyclopropylmethyl)-1H-indol-2-yl]-7-methoxy-1H-1,3-benzodiazole-5-carbonyl)-2-azabicyclo[2.2.1]heptan-7-amine]
18 | 7.31 | COc1cc(C(=O)N2C[C@H](N)C[C@@H](F)C2)cc2nc(-c3cc4cccnc4n3CC3CC3)n(Cc3cnn(-c4ccc(F)cn4)c3)c12 [Example 345, (3R,5R)-1-{2-[1-(cyclopropylmethyl)-1H-pyrrolo[2,3-b]pyridin-2-yl]-1-{[1-(5-fluoropyridin-2-yl)-1H-pyrazol-4-yl]methyl}-7-methoxy-1H-1,3-benzodiazole-5-carbonyl}-5-fluoropiperidin-3-amine]
19 | 7.46 | COc1cc(C(=O)N2C[C@H](N)C[C@@H](F)C2)cc2nc(-c3cc4ccccc4n3CC3CC3)n(CC3CN(c4ccnc(C#N)n4)C3)c12 [Example 4, 4-(3-((5-((3R,5R)-3-amino-5-fluoropiperidine-1-carbonyl)-2-(1-(cyclopropylmethyl)-1H-indol-2-yl)-7-methoxy-1H-benzo[d]imidazol-1-yl)methyl)azetidin-1-yl)pyrimidine-2-carbonitrile]
20 | 7.66 | COc1cc(C(=O)N2C[C@H]3CC[C@@H]2[C@@H]3N)cc2nc(-c3cc4ccccc4n3CC3CC3)n(Cc3cc(C)nn3C)c12 [Example 252, (1R,4R,7R)-2-{2-[1-(cyclopropylmethyl)-1H-indol-2-yl]-1-[(1,3-dimethyl-1H-pyrazol-5-yl)methyl]-7-methoxy-1H-1,3-benzodiazole-5-carbonyl}-2-azabicyclo[2.2.1]heptan-7-amine]
21 | 7.35 | COc1cc(C(=O)N2CC3CCC2[C@@H]3N)cc2nc(-c3cc4cccnc4n3CC3CC3)n(Cc3cnn(C)c3C)c12 (stereo partly drawn) [Example 486, (7R)-2-{2-[1-(cyclopropylmethyl)-1H-pyrrolo[2,3-b]pyridin-2-yl]-l-[(1,5-dimethyl-1H-pyrazol-4-yl)methyl]-7-methoxy-1H-1,3-benzodiazole-5-carbonyl}-2-azabicyclo[2.2.1]heptan-7-amine]
22 | 7.47 | COc1cc(C(=O)N2CC3CCC2[C@@H]3N)cc2nc(-c3cc4ccccc4n3CC3CC3)n(CC3CN(C(=O)c4ccncn4)C3)c12 (stereo partly drawn) [Example 437, (7R)-2-{2-[1-(cyclopropylmethyl)-1H-indol-2-yl]-7-methoxy-1-{[1-(pyrimidine-4-carbonyl)azetidin-3-yl]methyl}-1H-1,3-benzodiazole-5-carbonyl}-2-azabicyclo[2.2.1]heptan-7-amine]

From patent US12692254B2, “Benzimidazole inhibitors of PAD enzymes” (BRISTOL-MYERS SQUIBB COMPANY, priority 2018, dated 2026)
